Experimental data from US20230063109A1, “MIXTURES COMPRISING NITRIFICATION INHIBITORS AND CARRIERS” (BASF SE, priority 2020, published 2023).

Test system: nitrification in soil (microbial biomass)
Test: Incubation experiment: measurement of the nitrification-inhibiting effect in soil (NH4—N recovery)
Conditions: overall summary of the experiments
Procedure: In all treatments the same nitrogen as well as the same AI (active ingredient) amounts were applied. In case of the two tested nitrification inhibitors DMPP and DMPSA it was 1% NI (nitrification inhibitor) related to the sum of NH2—N and NH4—N of the corresponding carrier fertilizer. In case of physical mixtures, in which only one part of the fertilizers was treated with a NI, the concentrations of the corresponding AI were higher so that the overall amounts of NI were the same as in the control treatment.
100 g soil (incubated at 20° C. for two weeks to activate the microbial biomass) is filled into 500 ml plastic bottles (e.g. soil sampled from the field) and is moistened to 50% water holding capacity. The fertilizers are treated with the respective products containing the compositions and mixtures of the invention in the appropriate concentration.
Granules of the treated fertilizers are evenly distributed to the soil. The amount of fertilizer which is applied corresponds to 10 mg of reduced nitrogen per bottle.
The bottles are capped loosely to allow air exchange. The bottles are then incubated at 20° C. for 28 days.
For analysis, 300 mL of a 1% K2SO4-solution is added to the bottle containing the soil and shaken for 2 hours in a horizontal shaker at 150 rpm. […] The ammonium contents of the filtrates are analyzed with an autoanalyzer at 550 nm (Merck, AA11).

| Substance | inhibition of nitrification (in words) |
| --- | --- |
| 2-(3,4-dimethyl-1H-pyrazol-1-yl)succinic acid and/or 2-(4,5-dimethyl-1H-pyrazol-1-yl)succinic acid [DMPSA] | sufficiently be inhibited |
| 3,4-dimethyl pyrazole phosphate and/or 4,5-dimethyl pyrazole phosphate [DMPP] | sufficiently be inhibited |
